One may read the IC50 as the concentration that inhibits the measured activity by half. By melting point is commonly meant the temperature, or range, at which the solid turns liquid. As a reminder, the inhibition is how much of the control response was suppressed.

In data set [1] the target is T1, NLRP3 inflammasome (Homo sapiens, UniProt Q96P20).
T1 construct: The THP-1 cells were differentiated into macrophages by treating them with PMA 50 nM; endogenous in cells; host or cells: THP-1 (human monocytic leukaemia line), PMA-differentiated, primed with LPS, triggered with ATP
The data set is described as follows: NLRP3-dependent pyroptosis (LDH release) in PMA-differentiated THP-1 cells stimulated with LPS/ATP. Format: cell-based. Particulars: compounds at 10 μM for 1 hour, differentiated THP-1, LPS 10 μg/mL 4 hours, ATP 1.5 hours; for inhibition at 10 µM: read-out: Pyroptosis inhibition (% ± SEM). As to the method: (§1) THP-1 cells, a monocytic human cell line derived from the peripheral blood of a patient suffering from acute monocytic leukaemia (www.atcc.org), were cultured in RPMI 1640 medium (Aurogene, Rome, Italy), with the addition of foetal bovine serum (10%, Aurogene), L-glutamine (2 mM, Aurogene), penicillin (100 IU/ml, Aurogene) and streptomycin ([…], Aurogene). The medium was changed every 2-3 days, and the cells were maintained in an incubator at 37° C., with 5% CO2, and with suitable humidity.
The cells were seeded in 48-well plates (90.000 cells/well), and differentiated with phorbol 12-myristate 13-acetate (PMA—50 nM, 24 hours; Sigma-Aldrich). On the next day, the differentiated THP-1s were washed twice with the balanced saline solution phosphate-buffered saline (PBS), and stimulated with lipopolysaccharide (LPS) (10 μg/mL, 4 hours; Sigma-Aldrich), prepared in serum-free medium. After 4 hours the cells were incubated with the compounds at the concentration of 10 μM for 1 hour, operating in triplicate; INF176 and INF177 were tested at three different concentrations: […]. Finally, the cells were stimulated with ATP 5 mm for 1.5 hours. The supernatants were then harvested for the subsequent analyses.
LDH release into the supernatant obtained as described above was quantified using the CytoTox 96 nonradioactive cytotoxicity assay (Promega Corporation, Madison, […], USA), a colorimetric assay wherein LDH activity is measured with an NADH-dependent enzymatic reaction:
Briefly, an equal volume of CytoTox Reagent was added to the supernatant and, after 30 minutes' incubation, the reaction was stopped by adding the stop solution. The formazan concentration was determined by measuring absorbance, using a microplate reader (Victor X4—EnSight, PerkinElmer, Waltham, MA, USA), at λ=490 nm. Cell death was expressed according to the manufacturer's instructions.
The compound INF176 was tested to measure its ability to inhibit NLRP3-dependent cell pyroptosis in human macrophages, using the experimental protocol previously published [Cocco et al. 2017].
The THP-1 cells were differentiated into macrophages by treating them with PMA 50 nM (24 hours) and then with LPS (10 μg/mL) for 4 hours. The cells were treated with the compound (10 μM) for 1 hour. Pyroptosis was induced by treatment with ATP 5 mm. After 90 minutes, cell death was evaluated by measuring the LDH level in the cell supernatant using the CytoTox 96 Non-Radioactive Cytotoxicity Assay (Promega Corporation, Madison, […], USA).
On the technique in general: LDH in the medium is a marker of cell lysis.

For a further data set, the system named is THP-1 cells. As to the kind of experiment: Cytotoxicity (MTT assay). It is filed as cell-based, human. As to the method:
(§2) The THP-1 cells were seeded in a 96-well plate (15.000 cells/well) and incubated with the test compounds at four different concentrations (0.1, 1, 10 and 100 μM), operating in triplicate. The cells were placed in an incubator at 37° C., with 5% CO2, and cell viability was measured after 72 hours' incubation, using the MTT assay. This is a colorimetric assay, based on conversion of water-soluble 3-(4,5-dimethylthiazol-2-yl)-2,5-diphenyltetrazolium bromide (MTT; Sigma-Aldrich) to a violet-coloured insoluble formazan, by the mitochondrial dehydrogenase present in the live cells. The formazan is solubilised in acidified isopropanol, and the concentration is determined by measuring absorbance with a microplate reader (Victor X4—Ensight, PerkinElmer) at λ=570 nm. Viability was expressed as a percentage of the viability of the control cells, which were either untreated or treated with the carrier. The IC50 was calculated with the Graph Pad Prism software.

A further data set can be described thus: Cytotoxicity (MTT assay). It is filed as cell-based, human. The following applies: human; THP-1 cells, 72 hours' incubation. As to the method: as §2
On the technique in general: Tetrazolium dyes change colour on reduction, which living cells bring about.

Another data set deals with T2, IL-1beta (Homo sapiens, UniProt P01584).
T2 construct: host or cells: patients (clinical trial)
The following applies: cited from earlier work.

The nature of data set [2]: Stability in PBS pH 7.4 with excess glutathione or cysteamine (HPLC). The following applies: 100 μM, PBS pH 7.4, 37° C. Format: physicochemical. Here is the method:
The compound INF177 was incubated at the concentration of 100 μM in PBS pH 7.4 (0.1% DMSO) at 37° C., in the absence and in the presence of excess glutathione or cysteamine (10×). The reaction mixture underwent repeated HPLC analyses over 24 hours.
The HPLC analysis was conducted with an HP 1200 chromatography system (Agilent Technologies, Palo Alto, CA, USA) consisting of an integrated quaternary pump (model G1311A), degasser (model G1322A), UV MWD detector (model G1365D) and fluorescence detector (model G1321A). The data were processed with the HP ChemStation system program (Agilent Technologies).
The analyses were conducted using the ZORBAX SB-Phenyl column (250×4.6 mm, 5 μm; Agilent) as stationary phase and CH3CN/H2O (+0.1% HCOOH), 70/30 (v/v), flow rate=1.0 mL/min, as mobile phase, injecting 20 μL of sample (Rheodyne, Cotati, CA); the chromatograms were acquired at the wavelengths of 234 and 250 nm.

Another data set deals with SAMP8 mice. The data set is described as follows: SAMP8 mice, model of neurodegenerative disorders (Morris test, brain markers). The following applies: SAMP8, 50 mg/kg/day p.o., 2 months. Format: in vivo. Here is the method: Compound INF176 was tested in vivo in an animal model of mice with spontaneous accelerated senescence (SAMP8), used as a model of neurodegenerative disorders such as mild cognitive impairment (MCI), which in most cases evolve to Alzheimer's disease (AD).

The test system of a further data set is colon of SAMP8 animals. As to the kind of experiment: Colon contractions elicited by electrical stimuli (in vitro), SAMP8. Also noted: species or system mice.
The next data set relates to SAMP8 animals. As to the kind of experiment: SAMP8 animals: colon transit and colon IL-1β. It is filed as in vivo, mice.
Data set [3] concerns murine model of colitis induced by dextran sodium sulphate (DSS). As to the kind of experiment: Colitis induced by dextran sodium sulphate (DSS), murine model. Format: in vivo. The following applies: 25 mg/kg/day and 50 mg/kg/day p.o. As to the method: In particular, oral administration (p.o.) of INF176 at the doses of 25 mg/kg/day and 50 mg/kg/day gave rise to an improvement in the systemic and tissue parameters associated with colitis (FIGS. 2-3).

Data set [4] concerns the target T1, NLRP3 inflammasome. As to the kind of experiment: IL-1β release (ELISA) from differentiated THP-1 cells stimulated with LPS/ATP. It is filed as cell-based. Particulars: at the maximum concentration tested (FIG. 1B). Here is the method: as §1
The cells were seeded in 48-well plates (90.000 cells/well), and differentiated with phorbol 12-myristate 13-acetate (PMA—50 nM, 24 hours; Sigma-Aldrich). On the next day, the differentiated THP-1s were washed twice with the balanced saline solution phosphate-buffered saline (PBS), and stimulated with lipopolysaccharide (LPS) (10 μg/mL, 4 hours; Sigma-Aldrich), prepared in serum-free medium. […]
IL-1β release into the supernatant of cells treated as described above was determined with the Human IL-1 beta Uncoated ELISA kit (Invitrogen, Waltham, MA, USA), according to the manufacturer's instructions. […]
The interleukin levels were determined by measuring absorbance at X=450 nm, using a microplate reader (Victor X4—EnSight).
(ELISA stands for enzyme-linked immunosorbent assay.)

T1 sequence (Q96P20 whole entry): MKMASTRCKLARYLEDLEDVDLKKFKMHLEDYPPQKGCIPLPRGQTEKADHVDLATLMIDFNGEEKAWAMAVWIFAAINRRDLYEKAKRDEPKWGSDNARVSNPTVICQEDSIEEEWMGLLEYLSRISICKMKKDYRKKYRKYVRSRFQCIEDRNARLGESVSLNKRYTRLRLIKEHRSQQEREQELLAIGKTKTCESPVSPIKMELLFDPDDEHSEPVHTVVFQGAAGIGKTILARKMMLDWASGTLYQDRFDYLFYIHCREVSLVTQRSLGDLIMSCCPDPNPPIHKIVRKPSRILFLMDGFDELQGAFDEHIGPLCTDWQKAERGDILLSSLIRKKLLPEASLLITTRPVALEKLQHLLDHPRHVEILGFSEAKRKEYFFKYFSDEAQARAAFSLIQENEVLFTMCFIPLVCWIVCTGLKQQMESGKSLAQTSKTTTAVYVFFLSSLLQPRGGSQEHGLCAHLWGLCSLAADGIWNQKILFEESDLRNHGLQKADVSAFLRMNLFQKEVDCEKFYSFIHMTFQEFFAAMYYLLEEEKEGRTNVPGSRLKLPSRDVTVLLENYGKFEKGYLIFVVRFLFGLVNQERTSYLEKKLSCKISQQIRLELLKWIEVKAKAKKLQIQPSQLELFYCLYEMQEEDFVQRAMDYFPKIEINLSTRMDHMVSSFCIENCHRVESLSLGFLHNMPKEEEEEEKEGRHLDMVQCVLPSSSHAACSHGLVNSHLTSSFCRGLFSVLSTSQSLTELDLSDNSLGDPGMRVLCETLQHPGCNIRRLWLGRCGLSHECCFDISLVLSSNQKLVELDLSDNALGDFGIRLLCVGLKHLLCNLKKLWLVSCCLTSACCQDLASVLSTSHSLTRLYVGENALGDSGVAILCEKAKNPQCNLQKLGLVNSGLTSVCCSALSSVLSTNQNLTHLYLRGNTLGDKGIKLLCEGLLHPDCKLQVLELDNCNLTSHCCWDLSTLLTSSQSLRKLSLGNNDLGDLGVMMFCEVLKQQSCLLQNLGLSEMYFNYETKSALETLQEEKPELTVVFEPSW

With “(Z)-3-(2-chlorophenyl)-2-((phenylthio)methyl)acrylic acid [INF80]”, at NLRP3 inflammasome [1], the “Pyroptosis inhibition (% ± SEM)” value is on record as <10%. The same compound came in with an IC50 with THP-1 cells of 92.8 ± 1.6 µM.
`NC(=O)C1CCCN(C(=O)/C(=C/c2ccccc2Cl)CSc2ccccc2)C1` (stereo not drawn) [INF219, (Z)-1-(3-(2-chlorophenyl)-2-((phenylthio)methyl)acryloyl)piperidine-3-carboxamide] yielded a melting point of 60.5 to 61.4 °C. Besides, the inhibition at 10 µM at NLRP3 inflammasome [1] was 13 ± 8.2%. Moreover, in “Cytotoxicity (MTT assay)”, the IC50 at 72 h is > 100 µM.
For the compound canakinumab, the “reduction in lung cancer deaths” value with IL-1beta (after treatment with canakinumab) is reported as 77%. Besides, the “change in mortality due to cardiovascular events” value with IL-1beta (patients at cardiovascular risk) is listed as −31%.
For the compound `O=C(O)C1CCCN(C(=O)/C(=C/c2ccccc2Cl)CSc2ccccc2)C1` (stereo not drawn) [INF177, (Z)-1-(3-(2-chlorophenyl)-2-((phenylthio)methyl)acryloyl)piperidine-3-carboxylic acid], the “reactivity towards glutathione or cysteamine” value in data set [2] (10× excess thiol, over 24 hours) is given as “no appreciable reactivity was observed”. The “% compound remaining” value was > 98% in data set [2] (cysteamine 10×, after 2.5 hours); > 98% in data set [2] (glutathione 10×, after 4 hours); ≥ 96% in [2] (glutathione or cysteamine 10×, 24 hours). Moreover, the inhibition at 10 µM at NLRP3 inflammasome [1] worked out at 20.1 ± 9.8%. Also, in “Cytotoxicity (MTT assay)”, the IC50 at 72 h was > 100 µM.
`CCOC(=O)C(Cc1ccccc1Cl)CS(=O)(=O)C1CCCCC1` (stereo not drawn) [INF111, ethyl 2-(2-chlorobenzyl)-3-(cyclohexylsulphonyl)propanoate]: the inhibition at 10 µM on NLRP3 inflammasome [1] is < 10%. This compound also displayed an IC50 at 72 h in “Cytotoxicity (MTT assay)” of 98.1 ± 4.8 µM.
Regarding `CCOC(=O)C1CCCN(C(=O)/C(=C/c2ccccc2Cl)CSc2ccccc2)C1` (stereo not drawn) [INF176, ethyl (Z)-1-(3-(2-chlorophenyl)-2-((phenylthio)methyl)acryloyl)piperidine-3-carboxylate], in the data set with SAMP8 mice, the “cognitive decline (Morris test: escape latency, crossings in quadrant, entries into quadrant)” value was “significantly counteracts cognitive decline” and the “expression of p-tau protein in brain tissues” value is listed as “significantly reduces expression of p-tau protein”. For the same compound, in the data set on colon of SAMP8 animals (SAMP8, 50 mg/kg (FIG. 5)), the cholinergic colon contractions result was “significantly enhancing” and the tachykininergic colon contractions entry is “significantly enhancing”. The “colon contractions elicited by electrical stimuli” value with colon of SAMP8 animals (SAMP8, 50 mg/kg (FIG. 5B)) is reported as “significantly improves”. For the same compound, the “colon transit (pellets expelled in 1 hour)” value with SAMP8 animals (SAMP8, 50 mg/kg (FIG. 5A)) is given as “improves slowing of colon transit”. In the data set on SAMP8 animals (SAMP8, 50 mg/kg (FIG. 6)), the “IL-1β levels in the colon” value is “reduces the increase in IL-1β levels”. Also, the inhibition at 10 µM at NLRP3 inflammasome [1] turned out to be 45.2 ± 7.2%. In addition, in data set [3], the “body weight (weight loss)” value is “counteracts weight loss”, the “disease activity index (DAI)” value is “significantly reduces”, the “interleukin-1beta levels in colon tissues” value is “significantly reduces” and the “myeloperoxidase levels in colon tissues” value is on record as “significantly reduces”. The spleen weight result in data set [3] was “counteracts weight loss and increased spleen weight”. Moreover, the “inhibition of IL-1beta release from human macrophages” value against NLRP3 inflammasome [4] was found to be 35±1.2%. The compound also registered an IC50 at 72 h in the data set “Cytotoxicity (MTT assay)” of 94.2 ± 6.9 µM.
Turning to `CCOC(=O)C1CCN(C(=O)/C(=C/c2ccccc2Cl)CSc2ccccc2)CC1` [INF180, ethyl (Z)-1-(3-(2-chlorophenyl)-2-((phenylthio)methyl)acryloyl)piperidine-4-carboxylate], the inhibition at 10 µM on NLRP3 inflammasome [1] turned out to be 13.8 ± 7.1%. In addition, the IC50 at 72 h in the data set “Cytotoxicity (MTT assay)” was > 100 µM.
Regarding `CCOC(=O)[C@H](CSc1ccccc1)[C@H](O)c1ccccc1Cl` (mixture of isomers) [INF38a, Ethyl(2S,3S)-3-(2-chlorophenyl)-3-hydroxy-2-(phenylsulphanylmethyl)-propanoate and ethyl(2S,3R)-3-(2-chlorophenyl)-3-hydroxy-2-(phenylsulphanylmethyl)propanoate], on NLRP3 inflammasome [1], the inhibition at 10 µM amounted to 26.9 ± 4.9%. In addition, in “Cytotoxicity (MTT assay)”, the IC50 at 72 h is > 100 µM.
For `CCOC(=O)C1CCCN(C(=O)/C(=C/c2ccccc2Cl)CSC2CCCCC2)C1` (stereo not drawn) [INF194, ethyl (Z)-1-(3-(2-chlorophenyl)-2-((cyclohexylthio)methyl)acryloyl)piperidine-3-carboxylate], the inhibition at 10 µM at NLRP3 inflammasome [1] was < 10%. Further, in the data set “Cytotoxicity (MTT assay)”, the IC50 at 72 h stood at 78.3 ± 10.2 µM.
The matching figures for `CCOC(=O)C(CSc1ccccc1)Cc1ccccc1Cl` (stereo not drawn) [INF43, ethyl 2-(2-chlorobenzyl)-3-(phenylthio)propanoate]: 51 ± 5.6% and > 100 µM.
Consider `CCOC(=O)[C@@H](C[S+]([O-])c1ccccc1)[C@H](O)c1ccccc1Cl` (mixture of isomers) [INF44, ethyl 3-(2-chlorophenyl)-3-hydroxy-2-((phenylsulphinyl)methyl)propanoate], for which the inhibition at 10 µM on NLRP3 inflammasome [1] is < 10%. In addition, the IC50 at 72 h in “Cytotoxicity (MTT assay)” is > 100 µM.
As for `CCOC(=O)/C(=C/c1ccccc1Cl)CSC1CCCCC1` [INF56, (Z)-ethyl 3-(2-chlorophenyl)-2-((cyclohexylthio)methyl)acrylate], at NLRP3 inflammasome [1], the inhibition at 10 µM was found to be 41.6 ± 3.9%. Also, the IC50 at 72 h in the data set “Cytotoxicity (MTT assay)” was > 100 µM.

These data come from patent US20240252477A1, “NLRP3 INFLAMMASOME-INHIBITING COMPOUNDS AND THE USE THEREOF” (UNIVERSITA' DEGLI STUDI DI TORINO (60%), priority 2021, published 2024).
